Reference: ChEMBL document CHEMBL4308841, “Synthesis, in vitro antiproliferative activity, and kinase inhibitory effects of pyrazole-containing diarylureas and diarylamides” (Eur J Med Chem, 2018)

Assays:
SK-MEL-2 [1] = assay: Growth inhibition of human SK-MEL-2 cells assessed as cell growth at 10 uM incubated for 48 hrs by sulforhodamine B assay relative to control; format: functional; conditions: SK-MEL-2, 48 h, read-out: Activity
RPMI-8226 = assay: Growth inhibition of human RPMI8226 cells incubated for 48 hrs by sulforhodamine B assay; format: functional, cell-based; conditions: RPMI-8226, 48 h
NCI-H226 = assay: Growth inhibition of human NCI-H226 cells incubated for 48 hrs by sulforhodamine B assay; format: functional, cell-based; conditions: NCI-H226, 48 h
SK-MEL-2 [2] = assay: Growth inhibition of human SK-MEL-2 cells incubated for 48 hrs by sulforhodamine B assay; format: functional, cell-based; conditions: SK-MEL-2, 48 h
SK-MEL-28 [3] = assay: Growth inhibition of human SK-MEL-28 cells incubated for 48 hrs by sulforhodamine B assay; format: functional, cell-based; conditions: SK-MEL-28, 48 h
OVCAR-3 [4] = assay: Growth inhibition of human OVCAR3 cells incubated for 48 hrs by sulforhodamine B assay; format: functional, cell-based; conditions: OVCAR-3, 48 h
Hs-578T = assay: Growth inhibition of human Hs578T cells incubated for 48 hrs by sulforhodamine B assay; format: functional, cell-based
K562 = assay: Growth inhibition of human K562 cells assessed as cell growth at 0.01 uM incubated for 48 hrs by sulforhodamine B assay relative to control; format: functional; conditions: K562, 48 h, read-out: Activity
SF-295 = assay: Growth inhibition of human SF295 cells assessed as cell growth at 0.01 uM incubated for 48 hrs by sulforhodamine B assay relative to control; format: functional; conditions: SF-295, 48 h, read-out: Activity
Malme-3M [5] = assay: Growth inhibition of human MALME-3M cells assessed as cell growth at 0.01 uM incubated for 48 hrs by sulforhodamine B assay relative to control; format: functional; conditions: read-out: Activity
SK-MEL-5 = assay: Growth inhibition of human SK-MEL-5 cells assessed as cell growth at 0.01 uM incubated for 48 hrs by sulforhodamine B assay relative to control; format: functional; conditions: SK-MEL-5, 48 h, read-out: Activity
OVCAR-3 [6] = assay: Growth inhibition of human OVCAR3 cells assessed as cell growth at 0.01 uM incubated for 48 hrs by sulforhodamine B assay relative to control; format: functional; conditions: OVCAR-3, 48 h, read-out: Activity
OVCAR-8 = assay: Growth inhibition of human OVCAR8 cells assessed as cell growth at 0.01 uM incubated for 48 hrs by sulforhodamine B assay relative to control; format: functional; conditions: OVCAR-8, 48 h, read-out: Activity
786-0 = assay: Growth inhibition of human 786-0 cells assessed as cell growth at 0.01 uM incubated for 48 hrs by sulforhodamine B assay relative to control; format: functional; conditions: 786-0, 48 h, read-out: Activity
ACHN = assay: Growth inhibition of human ACHN cells assessed as cell growth at 0.01 uM incubated for 48 hrs by sulforhodamine B assay relative to control; format: functional; conditions: read-out: Activity
SNB-75 = assay: Growth inhibition of human SNB75 cells assessed as cell growth at 0.1 uM incubated for 48 hrs by sulforhodamine B assay relative to control; format: functional; conditions: SNB-75, 48 h, read-out: Activity
SK-MEL-28 [7] = assay: Growth inhibition of human SK-MEL-28 cells assessed as cell growth at 0.1 uM incubated for 48 hrs by sulforhodamine B assay relative to control; format: functional; conditions: SK-MEL-28, 48 h, read-out: Activity
UACC-62 = assay: Growth inhibition of human UACC62 cells assessed as cell growth at 0.1 uM incubated for 48 hrs by sulforhodamine B assay relative to control; format: functional; conditions: UACC-62, 48 h, read-out: Activity
SK-OV-3 = assay: Growth inhibition of human SKOV3 cells assessed as cell growth at 0.1 uM incubated for 48 hrs by sulforhodamine B assay relative to control; format: functional; conditions: SK-OV-3, 48 h, read-out: Activity
MDA-MB-468 = assay: Growth inhibition of human MDA-MB-468 cells assessed as cell growth at 0.1 uM incubated for 48 hrs by sulforhodamine B assay relative to control; format: functional; conditions: MDA-MB-468, 48 h, read-out: Activity
HL-60(TB) = assay: Growth inhibition of human HL-60(TB) cells assessed as cell growth at 1 uM incubated for 48 hrs by sulforhodamine B assay relative to control; format: functional; conditions: HL-60, 48 h, read-out: Activity
COLO 205 = assay: Growth inhibition of human COLO205 cells assessed as cell growth at 1 uM incubated for 48 hrs by sulforhodamine B assay relative to control; format: functional; conditions: COLO 205, 48 h, read-out: Activity
HCC 2998 = assay: Growth inhibition of human HCC2998 cells assessed as cell growth at 1 uM incubated for 48 hrs by sulforhodamine B assay relative to control; format: functional; conditions: HCC 2998, 48 h, read-out: Activity
HCT-116 = assay: Growth inhibition of human HCT116 cells assessed as cell growth at 1 uM incubated for 48 hrs by sulforhodamine B assay relative to control; format: functional; conditions: HCT-116, 48 h, read-out: Activity
OVCAR-4 = assay: Growth inhibition of human OVCAR4 cells assessed as cell growth at 1 uM incubated for 48 hrs by sulforhodamine B assay relative to control; format: functional; conditions: OVCAR-4, 48 h, read-out: Activity
NCI-H23 = assay: Growth inhibition of human NCI-H23 cells assessed as cell growth at 100 uM incubated for 48 hrs by sulforhodamine B assay relative to control; format: functional; conditions: NCI-H23, 48 h, read-out: Activity
Malme-3M [8] = assay: Growth inhibition of human MALME-3M cells assessed as cell growth at 100 uM incubated for 48 hrs by sulforhodamine B assay relative to control; format: functional; conditions: read-out: Activity
IGROV-1 = assay: Growth inhibition of human IGROV1 cells assessed as cell growth at 100 uM incubated for 48 hrs by sulforhodamine B assay relative to control; format: functional; conditions: IGROV-1, 48 h, read-out: Activity
[9] = read-out: LC50 (the source's name)
[10] = read-out: pLC50 (the source's name) (converted)

COc1cc(Cl)cc(-c2nn(-c3cccc(NC(=O)Nc4cccc(C(F)(F)F)c4)c3)cc2-c2ccncc2)c1
growth at 10 µM (SK-MEL-2 [1]): -36.7% | IC50 (RPMI-8226): 0.43 µM | GI50 (RPMI-8226; read-out: GI50): 0.43 µM | CC50 (RPMI-8226; [9]): > 100 µM | TGI (RPMI-8226; read-out: TGI): 23 µM | GI50 (RPMI-8226; read-out: pGI50 (converted)): 0.427 µM | CC50 (RPMI-8226; [10]): > 100 µM | TGI (RPMI-8226; read-out: pTGI (converted)): 2.29 µM | GI50 (NCI-H226; read-out: GI50): 2.26 µM | LC50 (NCI-H226; read-out: LC50): > 100 µM | TGI (NCI-H226; read-out: TGI): 11.5 µM | GI50 (NCI-H226; read-out: pGI50 (converted)): 2.24 µM | LC50 (NCI-H226; read-out: pLC50 (converted)): > 100 µM | TGI (NCI-H226; read-out: pTGI (converted)): 28.8 µM | GI50 (SK-MEL-2 [2]; read-out: GI50): 1.29 µM | CC50 (SK-MEL-2 [2]; [9]): 73.4 µM | TGI (SK-MEL-2 [2]; read-out: TGI): 30.5 µM | GI50 (SK-MEL-2 [2]; read-out: pGI50 (converted)): 1.29 µM | CC50 (SK-MEL-2 [2]; [10]): 7.41 µM | TGI (SK-MEL-2 [2]; read-out: pTGI (converted)): 3.09 µM | GI50 (SK-MEL-28 [3]; read-out: GI50): 2.53 µM | CC50 (SK-MEL-28 [3]; [9]): > 100 µM | TGI (SK-MEL-28 [3]; read-out: TGI): 12.1 µM | GI50 (SK-MEL-28 [3]; read-out: pGI50 (converted)): 2.51 µM | CC50 (SK-MEL-28 [3]; [10]): > 100 µM | TGI (SK-MEL-28 [3]; read-out: pTGI (converted)): 12 µM | IC50 (OVCAR-3 [4]): 0.59 µM | GI50 (OVCAR-3 [4]; read-out: GI50): 0.502 µM | CC50 (OVCAR-3 [4]; [9]): > 100 µM | TGI (OVCAR-3 [4]; read-out: TGI): 45.7 µM | GI50 (OVCAR-3 [4]; read-out: pGI50 (converted)): 0.589 µM | CC50 (OVCAR-3 [4]; [10]): > 100 µM | TGI (OVCAR-3 [4]; read-out: pTGI (converted)): 4.57 µM | GI50 (Hs-578T; read-out: GI50): 4.05 µM | CC50 (Hs-578T; [9]): > 100 µM | TGI (Hs-578T; read-out: TGI): > 100 µM | GI50 (Hs-578T; read-out: pGI50 (converted)): 4.07 µM | CC50 (Hs-578T; [10]): > 100 µM | TGI (Hs-578T; read-out: pTGI (converted)): > 100 µM | growth at 0.01 µM (K562): 104% | growth at 0.01 µM (SF-295): 94% | growth at 0.01 µM (Malme-3M [5]): 95% | growth at 0.01 µM (SK-MEL-5): 96% | growth at 0.01 µM (OVCAR-3 [6]): 100% | growth at 0.01 µM (OVCAR-8): 97% | growth at 0.01 µM (786-0): 99% | growth at 0.01 µM (ACHN): 108% | growth at 0.1 µM (SNB-75): 55% | growth at 0.1 µM (SK-MEL-28 [7]): 100% | growth at 0.1 µM (UACC-62): 96% | growth at 0.1 µM (SK-OV-3): 98% | growth at 0.1 µM (MDA-MB-468): 92% | growth at 1 µM (HL-60(TB)): 81% | growth at 1 µM (COLO 205): 79% | growth at 1 µM (HCC 2998): 98% | growth at 1 µM (HCT-116): 43% | growth at 1 µM (OVCAR-4): 71% | growth at 100 µM (NCI-H23): -40% | growth at 100 µM (Malme-3M [8]): -26% | growth at 100 µM (IGROV-1): -12%

COc1cc(Cl)cc(-c2nn(-c3cccc(NC(=O)c4ccc(Cl)c(Cl)c4)c3)cc2-c2ccncc2)c1
growth at 10 µM (SK-MEL-2 [1]): 78.4%
